Measured values published in publication PMC3856494, “Radiofluorination and biological evaluation of N-aryl-oxadiazolyl-propionamides as potential radioligands for PET imaging of cannabinoid CB2 receptors” (Organic and Medicinal Chemistry Letters, 2013).

Tests used:
[1] = molecular target: CB2R (Mus musculus, UniProt P47936); set-up: species or system female CD1 mice; details: female, CD1, mouse, in vivo
Experimental: (§1) Female CD1 mice (10 to 12 weeks old, 20 to 25 g) received an injection of 300 to 400 kBq of [^18F]1 or [^18F]2 with specific activities of >450 GBq/μmol in 200 μL of 0.9% NaCl/10% EtOH into the tail vein. The animals were anesthetized (CO2/O2 mixture) for blood and urine sampling and euthanized by luxation of the cervical spine at 5, 30, and 60 min after injection (p.i.) (n = 2 to 5 per time). The organs of interest were removed and weighed, and the activities were measured by γ counting using a calibrated γ counter Wallac Wizard 1470 (Perkin Elmer Inc., Waltham, MA, USA). The percentage of injected dose per gram of wet tissue (% ID/g wet weight) was calculated.
(3 mg/kg i.p. in 0.9% saline, 10 min before the injection of the radiotracer) at 60 min p.i. (n = 2 to 5). The unpaired two-tailed t test was used to compare the results between the groups. We considered differences to be significant at a p value <0.05.

[2] = Ex vivo biodistribution (organ distribution) in mice; details: i.v. 300 to 400 kBq, female CD1 mice
Experimental: as §1

[3] = In vitro radiochemical stability; assay type: physicochemical; details: all selected media, 40°C, up to 90 min
Experimental: In vitro radiochemical stabilities of [^18F]1 and [^18F]2 were investigated in 0.9% NaCl solution, Dulbecco’s phosphate buffer, 0.01 M Tris–HCl (pH 7.4 at 21°C), and EtOH at 40°C for 90 min. Samples were taken at 15, 30, 60, and 90 min after incubation and analyzed by radio-TLC and radio-HPLC.

[4] = Ex vivo metabolite studies (radio-HPLC of plasma and brain extracts); assay type: in vivo, CD1 mice; details: mice
Experimental: [^18F]1 and [^18F]2 (100 to 150 MBq, 250 to 450 GBq/μmol in 150 μL NaCl 0.9%/10% EtOH) were injected via the tail vein in CD1 male mice (10 to 12 weeks old, 20 to 25 g). Blood and urine samples were obtained at 30 and 60 min p.i. (n = 3 per time point). Twofold extractions of plasma and brain samples (n = 3) were performed using ice-cold MeCN according to the standard protocol established in our group (see [47, 48]). Briefly, plasma samples were obtained by centrifugation of the blood at 4,000×g at 4°C for 10 min, and brain samples were homogenized in ice-cold 50 mM Tris–HCl (pH = 7.4). The samples were vortexed, incubated on ice, and centrifuged at 10,000×g for 3 min. Supernatants were collected, and the precipitates were re-dissolved in ice-cold MeCN for the second extraction. The supernatants from the two extractions were combined, concentrated under a gentle argon stream at 65°C, and analyzed by radio-TLC and gradient analytical HPLC (see ‘Radiochemistry’ section). Aliquots from each extraction supernatant and the precipitates were also taken and quantified by γ counting (Wallac Wizard 1470, Perkin Elmer Inc., Waltham, MA, USA) along with the respective aliquots of intact plasma samples and brain homogenates. A moderate recovery of radioactivity was obtained from plasma samples and brain homogenates (60% to 70%). Radiometabolites of [^18F]17 in the plasma, spleen, and brain were assessed at 30 and 60 min p.i.

CB2R, sequence (P47936 whole entry): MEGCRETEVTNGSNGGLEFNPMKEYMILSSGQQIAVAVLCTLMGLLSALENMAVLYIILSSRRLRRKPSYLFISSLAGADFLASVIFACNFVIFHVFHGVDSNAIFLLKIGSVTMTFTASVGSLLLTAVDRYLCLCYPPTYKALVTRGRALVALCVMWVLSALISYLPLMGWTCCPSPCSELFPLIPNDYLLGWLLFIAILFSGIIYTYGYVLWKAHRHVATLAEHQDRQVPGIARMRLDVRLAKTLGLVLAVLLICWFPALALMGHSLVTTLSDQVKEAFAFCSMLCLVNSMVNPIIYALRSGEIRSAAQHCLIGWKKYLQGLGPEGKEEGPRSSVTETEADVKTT

CCn1c2ccccc2c2cc(NC(=O)CCc3nc(-c4ccc([18F])cc4Br)no3)ccc21 [[^18F]2]
Radioactivity uptake, Adrenals, Blocking 60 min ([1]; 3 mg/kg, 1 h): 3.34 ± 0.15 % ID/g | Radioactivity uptake, Bladder, Blocking 60 min ([1]; 3 mg/kg, 1 h): 1.77 ± 0.16 % ID/g | Radioactivity uptake, Blood, Blocking 60 min ([1]; 3 mg/kg, 1 h): 3.40 ± 0.21 % ID/g | Radioactivity uptake, Brain, Blocking 60 min ([1]; 3 mg/kg, 1 h): 0.28 ± 0.03 % ID/g | Radioactivity uptake, Femur, Blocking 60 min ([1]; 3 mg/kg, 1 h): 0.61 ± 0.09 % ID/g | Radioactivity uptake, Gonads, Blocking 60 min ([1]; 3 mg/kg, 1 h): 1.97 ± 0.39 % ID/g | Radioactivity uptake, Heart, Blocking 60 min ([1]; 3 mg/kg, 1 h): 1.53 ± 0.13 % ID/g | Radioactivity uptake, Kidney, Blocking 60 min ([1]; 3 mg/kg, 1 h): 4.91 ± 1.51 % ID/g | Radioactivity uptake, Large intestine, Blocking 60 min ([1]; 3 mg/kg, 1 h): 1.78 ± 0.23 % ID/g | Radioactivity uptake, Liver, Blocking 60 min ([1]; 3 mg/kg, 1 h): 10.51 ± 1.10 % ID/g | Radioactivity uptake, Lung, Blocking 60 min ([1]; 3 mg/kg, 1 h): 2.31 ± 0.19 % ID/g | Radioactivity uptake, Muscle, Blocking 60 min ([1]; 3 mg/kg, 1 h): 0.70 ± 0.06 % ID/g | Radioactivity uptake, Pancreas, Blocking 60 min ([1]; 3 mg/kg, 1 h): 1.02 ± 0.11 % ID/g | Radioactivity uptake, Plasma, Blocking 60 min ([1]; 3 mg/kg, 1 h): 5.78 ± 0.07 % ID/g | Radioactivity uptake, Small intestine, Blocking 60 min ([1]; 3 mg/kg, 1 h): 29.64 ± 5.10 % ID/g | Radioactivity uptake, Spleen, Blocking 60 min ([1]; 3 mg/kg, 1 h): 0.74 ± 0.10 % ID/g | Radioactivity uptake, Stomach, Blocking 60 min ([1]; 3 mg/kg, 1 h): 3.24 ± 2.10 % ID/g | Radioactivity uptake, Thymus, Blocking 60 min ([1]; 3 mg/kg, 1 h): 1.77 ± 0.14 % ID/g | % control, Adrenals ([1]; 60 min): 137 % control | % control, Bladder ([1]; 60 min): 122 % control | % control, Blood ([1]; 60 min): 136 % control | % control, Brain ([1]; 60 min): 108 % control | % control, Femur ([1]; 60 min): 106 % control | % control, Gonads ([1]; 60 min): 86 % control | % control, Heart ([1]; 60 min): 106 % control | % control, Kidney ([1]; 60 min): 124 % control | % control, L. intestine ([1]; 60 min): 96 % control | % control, Liver ([1]; 60 min): 168 % control | % control, Lung ([1]; 60 min): 92 % control | % control, Muscle ([1]; 60 min): 99 % control | % control, Pancreas ([1]; 60 min): 125 % control | % control, Plasma ([1]; 60 min): 111 % control | % control, S. intestine ([1]; 60 min): 109 % control | % control, Spleen ([1]; 60 min): 110 % control | % control, Stomach ([1]; 60 min): 146 % control | % control, Thymus ([1]; 60 min): 171 % control | Radioactivity uptake, Adrenals, Control 5 min [2]: 7.67 ± 2.18 % ID/g | Radioactivity uptake, Adrenals, Control 30 min [2]: 5.38 ± 0.61 % ID/g | Radioactivity uptake, Adrenals, Control 60 min [2]: 2.44 ± 0.72 % ID/g | Radioactivity uptake, Bladder, Control 5 min [2]: 1.01 ± 0.29 % ID/g | Radioactivity uptake, Bladder, Control 30 min [2]: 2.02 ± 0.39 % ID/g | Radioactivity uptake, Bladder, Control 60 min [2]: 1.45 ± 0.57 % ID/g | Radioactivity uptake, Blood, Control 5 min [2]: 2.29 ± 0.48 % ID/g | Radioactivity uptake, Blood, Control 30 min [2]: 3.42 ± 0.39 % ID/g | Radioactivity uptake, Blood, Control 60 min [2]: 2.50 ± 0.42 % ID/g | Radioactivity uptake, Brain, Control 5 min [2]: 0.62 ± 0.22 % ID/g | Radioactivity uptake, Brain, Control 30 min [2]: 0.86 ± 0.34 % ID/g | Radioactivity uptake, Brain, Control 60 min [2]: 0.26 ± 0.07 % ID/g | Radioactivity uptake, Femur, Control 5 min [2]: 1.63 ± 0.93 % ID/g | Radioactivity uptake, Femur, Control 30 min [2]: 1.10 ± 0.03 % ID/g | Radioactivity uptake, Femur, Control 60 min [2]: 0.58 ± 0.11 % ID/g | Radioactivity uptake, Gonads, Control 5 min [2]: 1.14 ± 0.32 % ID/g | Radioactivity uptake, Gonads, Control 30 min [2]: 2.08 ± 0.03 % ID/g | Radioactivity uptake, Gonads, Control 60 min [2]: 2.29 ± 0.57 % ID/g | Radioactivity uptake, Heart, Control 5 min [2]: 3.42 ± 0.57 % ID/g | Radioactivity uptake, Heart, Control 30 min [2]: 2.32 ± 0.24 % ID/g | Radioactivity uptake, Heart, Control 60 min [2]: 1.45 ± 0.20 % ID/g | Radioactivity uptake, Kidney, Control 5 min [2]: 5.86 ± 0.96 % ID/g | Radioactivity uptake, Kidney, Control 30 min [2]: 5.90 ± 0.15 % ID/g | Radioactivity uptake, Kidney, Control 60 min [2]: 3.96 ± 1.25 % ID/g | Radioactivity uptake, Large intestine, Control 5 min [2]: 0.46 ± 0.06 % ID/g | Radioactivity uptake, Large intestine, Control 30 min [2]: 1.25 ± 0.30 % ID/g | Radioactivity uptake, Large intestine, Control 60 min [2]: 1.86 ± 0.36 % ID/g | Radioactivity uptake, Liver, Control 5 min [2]: 31.31 ± 9.91 % ID/g | Radioactivity uptake, Liver, Control 30 min [2]: 8.84 ± 0.83 % ID/g | Radioactivity uptake, Liver, Control 60 min [2]: 6.27 ± 0.68 % ID/g | Radioactivity uptake, Lung, Control 5 min [2]: 4.62 ± 0.21 % ID/g | Radioactivity uptake, Lung, Control 30 min [2]: 3.36 ± 0.02 % ID/g | Radioactivity uptake, Lung, Control 60 min [2]: 2.52 ± 0.60 % ID/g | Radioactivity uptake, Muscle, Control 5 min [2]: 1.00 ± 0.30 % ID/g | Radioactivity uptake, Muscle, Control 30 min [2]: 0.92 ± 0.15 % ID/g | Radioactivity uptake, Muscle, Control 60 min [2]: 0.70 ± 0.27 % ID/g | Radioactivity uptake, Pancreas, Control 5 min [2]: 2.04 ± 0.59 % ID/g | Radioactivity uptake, Pancreas, Control 30 min [2]: 1.71 ± 0.15 % ID/g | Radioactivity uptake, Pancreas, Control 60 min [2]: 0.82 ± 0.21 % ID/g | Radioactivity uptake, Plasma, Control 5 min [2]: 3.87 ± 0.90 % ID/g | Radioactivity uptake, Plasma, Control 30 min [2]: 6.82 ± 1.19 % ID/g | Radioactivity uptake, Plasma, Control 60 min [2]: 5.22 ± 0.73 % ID/g | Radioactivity uptake, Small intestine, Control 5 min [2]: 3.86 ± 2.64 % ID/g | Radioactivity uptake, Small intestine, Control 30 min [2]: 20.78 ± 3.28 % ID/g | Radioactivity uptake, Small intestine, Control 60 min [2]: 27.31 ± 2.44 % ID/g | Radioactivity uptake, Spleen, Control 5 min [2]: 10.42 ± 7.67 % ID/g | Radioactivity uptake, Spleen, Control 30 min [2]: 1.34 ± 0.10 % ID/g | Radioactivity uptake, Spleen, Control 60 min [2]: 0.68 ± 0.11 % ID/g | Radioactivity uptake, Stomach, Control 5 min [2]: 1.57 ± 1.18 % ID/g | Radioactivity uptake, Stomach, Control 30 min [2]: 2.09 ± 0.81 % ID/g | Radioactivity uptake, Stomach, Control 60 min [2]: 2.21 ± 0.43 % ID/g | Radioactivity uptake, Thymus, Control 5 min [2]: 2.30 ± 1.06 % ID/g | Radioactivity uptake, Thymus, Control 30 min [2]: 1.96 ± 0.22 % ID/g | Radioactivity uptake, Thymus, Control 60 min [2]: 1.04 ± 0.08 % ID/g | intact tracer [3]: ≥ 98% | Percentage of total activity in brain samples, 30 min p.i. ([4]; brain homogenate extract, 30 min p.i. of [18F]1 or [18F]2, radio-HPLC): 88% | Percentage of total activity in brain samples, 60 min p.i. ([4]; brain homogenate extract, 60 min p.i. of [18F]1 or [18F]2, radio-HPLC): 43% | Relative percentage of intact tracer and radiometabolites, Plasma 30 min p.i. ([4]; plasma, 30 min p.i. of [18F]1 or [18F]2, radio-HPLC): 2% | Relative percentage of intact tracer and radiometabolites, Plasma 60 min p.i. ([4]; plasma, 60 min p.i. of [18F]1 or [18F]2, radio-HPLC): 2%
